Results taken from PubChem BioAssay AID2060493 (Molecular Pharmacology Branch, DTP, NCI, 2025).

Test system: 616215-338-R-J1-PDC tumor spheroids, viability
Test: Anticancer human tumor 616215-338-R-J1-PDC patient-derived colon adenocarcinoma cell line growth inhibition [GQUAD]
Conditions: spheroids with HUVEC and MSC; for IC50: curve of first compound; for viability, T/C: stronger effect = lower value
Outline: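 Viability of tumor cells grown as complex spheroids with endothelial and stromal cells, exposed to drug combinations. Top concentration at or near clinical Cmax (else 10 microM), diluted in half-log increments.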

[1] = second compound 0.0316 µM, first compound 0.0316 µM
[2] = second compound 0.0316 µM, first compound 0.1 µM
[3] = second compound 0.0316 µM, first compound 0.316 µM
[4] = second compound 0.0316 µM, first compound 1 µM
[5] = second compound 0.0316 µM, first compound 3.16 µM
[6] = second compound 0.0316 µM, first compound 10 µM
[7] = second compound 0.1 µM, first compound 0.0316 µM
[8] = second compound 0.1 µM, first compound 0.1 µM
[9] = second compound 0.1 µM, first compound 0.316 µM
[10] = second compound 0.1 µM, first compound 1 µM
[11] = second compound 0.1 µM, first compound 3.16 µM
[12] = second compound 0.1 µM, first compound 10 µM
[13] = second compound 0.316 µM, first compound 0.0316 µM
[14] = second compound 0.316 µM, first compound 0.1 µM
[15] = second compound 0.316 µM, first compound 0.316 µM
[16] = second compound 0.316 µM, first compound 1 µM
[17] = second compound 0.316 µM, first compound 3.16 µM
[18] = second compound 0.316 µM, first compound 10 µM
[19] = second compound 1 µM, first compound 0.0316 µM
[20] = second compound 1 µM, first compound 0.1 µM
[21] = second compound 1 µM, first compound 0.316 µM
[22] = second compound 1 µM, first compound 1 µM
[23] = second compound 1 µM, first compound 3.16 µM
[24] = second compound 1 µM, first compound 10 µM
[25] = second compound 3.16 µM, first compound 0.0316 µM
[26] = second compound 3.16 µM, first compound 0.1 µM
[27] = second compound 3.16 µM, first compound 0.316 µM
[28] = second compound 3.16 µM, first compound 1 µM
[29] = second compound 3.16 µM, first compound 3.16 µM
[30] = second compound 3.16 µM, first compound 10 µM
[31] = second compound 10 µM, first compound 0.0316 µM
[32] = second compound 10 µM, first compound 0.1 µM
[33] = second compound 10 µM, first compound 0.316 µM
[34] = second compound 10 µM, first compound 1 µM
[35] = second compound 10 µM, first compound 3.16 µM
[36] = second compound 10 µM, first compound 10 µM
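Further: spheroids exposed to agents for 7 days before readout.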
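Wherever viability, T/C is given: percent viability relative to DMSO vehicle control wells taken as 100%.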

What does the source list for `CCCS(=O)(=O)Nc1ccc(F)c(C(=O)c2c[nH]c3ncc(-c4ccc(Cl)cc4)cc23)c1F` + Cc1[nH]c2ccc(F)cc2c1-c1nc2c3cccnc3c3ncccc3c2[nH]1?
IC50 (second compound 0.0316 µM): 5.54 µM; IC50 (second compound 0.1 µM): 5.28 µM; IC50 (second compound 0.316 µM): 5.62 µM; IC50 (second compound 1 µM): 5.42 µM; IC50 (second compound 3.16 µM): 5.19 µM; IC50 (second compound 10 µM): 4.76 µM; viability, T/C [1]: 105%; viability, T/C [2]: 96.7%; viability, T/C [3]: 93.8%; viability, T/C [4]: 99.1%; viability, T/C [5]: 94.9%; viability, T/C [6]: 2.78%; viability, T/C [7]: 93.6%; viability, T/C [8]: 107%; viability, T/C [9]: 102%; viability, T/C [10]: 102%; viability, T/C [11]: 87.6%; viability, T/C [12]: 3.08%; viability, T/C [13]: 104%; viability, T/C [14]: 98.7%; viability, T/C [15]: 99%; viability, T/C [16]: 98%; viability, T/C [17]: 96.5%; viability, T/C [18]: 3.41%; viability, T/C [19]: 109%; viability, T/C [20]: 106%; viability, T/C [21]: 89%; viability, T/C [22]: 96.3%; viability, T/C [23]: 91.5%; viability, T/C [24]: 2.83%; viability, T/C [25]: 96.7%; viability, T/C [26]: 91.4%; viability, T/C [27]: 101%; viability, T/C [28]: 95.2%; viability, T/C [29]: 86.6%; viability, T/C [30]: 1.44%; viability, T/C [31]: 101%; viability, T/C [32]: 92.3%; viability, T/C [33]: 101%; viability, T/C [34]: 93.5%; viability, T/C [35]: 76.8%; viability, T/C [36]: 1.37%

Which results are given for `CC(=O)O[C@H]1C(=O)[C@@]2(C)[C@H]([C@H](OC(=O)c3ccccc3)[C@]3(O)C[C@H](OC(=O)[C@H](O)[C@@H](NC(=O)c4ccccc4)c4ccccc4)C(C)=C1C3(C)C)[C@]1(OC(C)=O)CO[C@@H]1C[C@@H]2O` + CN(C)c1ccc(Nc2c3ccc(NC(=O)CCN4CCCC4)cc3nc3cc(NC(=O)CCN4CCCC4)ccc23)cc1?
IC50 (second compound 0.0316 µM): < 0.0316 µM; IC50 (second compound 0.1 µM): < 0.0316 µM; IC50 (second compound 0.316 µM): < 0.0316 µM; IC50 (second compound 1 µM): < 0.0316 µM; IC50 (second compound 3.16 µM): < 0.0316 µM; IC50 (second compound 10 µM): < 0.0316 µM; viability, T/C [1]: 28.9%; viability, T/C [2]: 20.4%; viability, T/C [3]: 18.1%; viability, T/C [4]: 14.6%; viability, T/C [5]: 12.1%; viability, T/C [6]: 13.2%; viability, T/C [7]: 24.7%; viability, T/C [8]: 19.5%; viability, T/C [9]: 16.4%; viability, T/C [10]: 14%; viability, T/C [11]: 12.8%; viability, T/C [12]: 11.4%; viability, T/C [13]: 41.4%; viability, T/C [14]: 22.1%; viability, T/C [15]: 14.8%; viability, T/C [16]: 10.8%; viability, T/C [17]: 12.3%; viability, T/C [18]: 14.2%; viability, T/C [19]: 34%; viability, T/C [20]: 15%; viability, T/C [21]: 16%; viability, T/C [22]: 8.58%; viability, T/C [23]: 16.5%; viability, T/C [24]: 12.9%; viability, T/C [25]: 28.6%; viability, T/C [26]: 14.3%; viability, T/C [27]: 15.3%; viability, T/C [28]: 11.1%; viability, T/C [29]: 11.2%; viability, T/C [30]: 11.8%; viability, T/C [31]: 26.2%; viability, T/C [32]: 16.4%; viability, T/C [33]: 17.4%; viability, T/C [34]: 12.2%; viability, T/C [35]: 9.14%; viability, T/C [36]: 11.9%
